Reference: US9566349B2, “Intestinal peptide targeting ligands” (Rutgers, The State University of New Jersey, priority 2010, dated 2017)
Square brackets hold non-standard residues; d marks the D form. Ends that are not written are not given here. Peptide text beside a SMILES is read from it. Nle = CCCC[C@H](N)C(=O)O

Key:
[1] = tested on: Caco-2 intestinal epithelial monolayer; assay: Transport of FITC-labeled peptide across Caco-2 intestinal epithelial monolayer; format: cell-based, human; details: Caco-2 monolayers, n=3, p<0.05
Description: FIG. 2. Illustrates that peptide-labeled #12 (SEQ ID NO. 2) and its sequence-scrambled peptide FITC-12C1 were transported across Caco-2 intestinal epithelial monolayer in the presence and absence of chylomicron lipid-forming micelles.
Fluorescently labeled peptides according to SEQ ID NOS. 1 and 3 were synthesized. The peptide according to SEQ ID NO. […] The peptide according to SEQ ID NO. […] Therefore, the peptide according to SEQ ID NO. 2 aggregate may be viewed as a small nanoparticle displaying some peptides according to SEQ ID NO. 2 in correct orientation (i.e., on the surface not buried inside the nanoparticle). Even with this imperfect display, some increase in chylomicron lipid-dependent translocation across Caco-2 monolayers is still noticeable over a scrambled peptide according to SEQ ID NO. 1 (12C1) (FIG. 2). FITC-12 was 4.6-fold more efficiently transported than the sequence-scrambled control (FIG. 2).

[2] = cited from earlier work
[3] = Solubility and aggregation of peptide compared with SEQ ID NO. 1; format: physicochemical; details: Met and Cys replaced by norleucine and serine
Description: Another example of such an amino acid sequence is TKWPVDN/eSPNVS (SEQ ID. NO. 6). In comparison with SEQ ID. NO. 1, replacement of the oxidation-prone amino acids (methionine and cysteine) with their biosteric counterparts (norleucine and serine respectively) in SEQ ID. NO. […] The peptide ligands of the instant invention also include variants or homologues of SEQ ID NO: 6, which may be at least 75% identical to SEQ ID NO: 6 or which may contain conservative substitutions of corresponding amino acid residues.

Row | Compound | LogP [2] | further results
1 | FITC-12: fluorescently (FITC) labeled peptide #12 (SEQ ID NO. 2) (QDDVQTWQRQPK; also: FITC label, position not given here) | – | transport efficiency relative to sequence-scrambled control (12C1) [1]: 4.6 fold
2 | CC(C)CN(C[C@@H](O)[C@H](Cc1ccccc1)NC(=O)O[C@H]1CO[C@H]2OCC[C@H]21)S(=O)(=O)c1ccc(N)cc1 [Darunavir] | 1.8 | –
3 | Cc1cc(C2CCCCC2)n(O)c(=O)c1 [Ciclopirox] | 2.2 | –
4 | CCCC[C@H](NC(=O)[C@H](CC(=O)O)NC(=O)[C@@H](NC(=O)[C@@H]1CCCN1C(=O)[C@H](Cc1c[nH]c2ccccc12)NC(=O)[C@H](CCCCN)NC(=O)[C@@H](N)[C@@H](C)O)C(C)C)C(=O)N[C@@H](CO)C(=O)N1CCC[C@H]1C(=O)N[C@@H](CC(N)=O)C(=O)N[C@H](C(=O)N[C@@H](CO)C(=O)O)C(C)C [SEQ ID. NO. 6, TKWPVDN/eSPNVS] (H-TKWPVD[Nle]SPNVS-OH; N-terminus and C-terminus assumed) | – | solubility in comparison with SEQ ID. NO. 1 [3]: better solubility
5 | C[C@@H]1CCO[C@H]2Cn3cc(C(=O)NCc4ccc(F)cc4F)c(=O)c(O)c3C(=O)N12 [Dolutegravir] | 1.0 | –
